In ChEMBL document CHEMBL1201862, “PubChem BioAssay data set” (2004):
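Dose response: 5 concentrations. Exposure: 48 h. Format: 96-well plates. Endpoint: linear interpolation; highest concentration if not reached. GI50 is the concentration that inhibits growth by half.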 Calls of active or inactive are those of the source. Rule as the data show it: active = GI50 up to about 1.1 µM and inactive = higher.

Legend:
Assay in all cases: NCI-60 cell line screen, 48 h
786-0 = test system: 786-0
A498 = test system: A498
A549 = test system: A549
ACHN = test system: ACHN
BT-549 = test system: BT-549
CAKI-1 = test system: CAKI-1
CCRF-CEM = test system: CCRF-CEM
COLO 205 = test system: COLO 205
DU-145 = test system: DU-145
EKVX = test system: EKVX
HCC 2998 = test system: HCC 2998
HCT-116 = test system: HCT-116
HCT-15 = test system: HCT-15
HL-60 = test system: HL-60
HOP-62 = test system: HOP-62
HOP-92 = test system: HOP-92
HT-29 = test system: HT-29
IGROV-1 = test system: IGROV-1
K562 = test system: K562
KM12 = test system: KM12
LOX IMVI = test system: LOX IMVI
M14 = test system: M14
MCF7 = test system: MCF7
MDA-MB-231 = test system: MDA-MB-231
MDA-MB-435 = test system: MDA-MB-435
MDA-N = test system: MDA-N
MOLT-4 = test system: MOLT-4
Malme-3M = test system: Malme-3M
NCI-H226 = test system: NCI-H226
NCI-H23 = test system: NCI-H23
NCI-H460 = test system: NCI-H460
NCI-H522 = test system: NCI-H522
NCI/ADR-RES = test system: NCI/ADR-RES
OVCAR-3 = test system: OVCAR-3
OVCAR-4 = test system: OVCAR-4
OVCAR-5 = test system: OVCAR-5
OVCAR-8 = test system: OVCAR-8
PC-3 = test system: PC-3
RPMI-8226 = test system: RPMI-8226
RXF 393 = test system: RXF 393
SF-268 = test system: SF-268
SF-295 = test system: SF-295
SF-539 = test system: SF-539
SK-MEL-28 = test system: SK-MEL-28
SK-MEL-2 = test system: SK-MEL-2
SK-MEL-5 = test system: SK-MEL-5
SK-OV-3 = test system: SK-OV-3
SN12C = test system: SN12C
SNB-19 = test system: SNB-19
SNB-75 = test system: SNB-75
SR = test system: SR
SW-620 = test system: SW-620
T47D = test system: T47D
TK-10 = test system: TK-10
U-251 = test system: U-251
UACC-257 = test system: UACC-257
UACC-62 = test system: UACC-62
UO-31 = test system: UO-31
Hs-578T = test system: Hs-578T

Measured: GI50

COC(=O)CCCc1nc2ccccc2nc1/N=N/c1ccccc1
23.9 µM: HCT-15
inactive: 786-0 38.1 µM | A498 > 100 µM | A549 29.9 µM | ACHN 74 µM | BT-549 53.7 µM | CAKI-1 41.6 µM | CCRF-CEM 30.1 µM | COLO 205 3.71 µM | DU-145 48.3 µM | EKVX 73.6 µM | HCC 2998 > 100 µM | HCT-116 30.3 µM | HL-60 2.57 µM | HOP-62 52.5 µM | HOP-92 > 100 µM | HT-29 32.1 µM | IGROV-1 25.5 µM | K562 19.3 µM | KM12 37.1 µM | LOX IMVI 16.6 µM | M14 27.6 µM | MCF7 30.8 µM | MDA-MB-231 > 100 µM | MDA-MB-435 58.7 µM | MDA-N 48.2 µM | MOLT-4 9.93 µM | Malme-3M 17.4 µM | NCI-H226 43 µM | NCI-H23 39 µM | NCI-H460 49.8 µM | NCI-H522 19.1 µM | NCI/ADR-RES 18.7 µM | OVCAR-3 31.3 µM | OVCAR-4 50.8 µM | OVCAR-5 > 100 µM | OVCAR-8 22 µM | PC-3 39.5 µM | RPMI-8226 22.9 µM | RXF 393 62.5 µM | SF-268 51.2 µM | SF-295 41 µM | SF-539 70.8 µM | SK-MEL-28 38.5 µM | SK-MEL-2 > 100 µM | SK-MEL-5 61.1 µM | SK-OV-3 > 100 µM | SN12C 51.5 µM | SNB-19 56 µM | SNB-75 38.5 µM | SR 20.8 µM | SW-620 47.5 µM | T47D 45.7 µM | TK-10 > 100 µM | U-251 53.6 µM | UACC-257 45.9 µM | UACC-62 > 100 µM | UO-31 25.9 µM

c1ccc(P(CCP(c2ccccn2)c2ccccn2)c2ccccc2)cc1
active: A549 0.0736 µM | COLO 205 0.341 µM | EKVX 0.689 µM | HCT-116 0.0192 µM | HL-60 0.0398 µM | HOP-62 0.0268 µM | HT-29 0.0247 µM | IGROV-1 < 0.01 µM | K562 0.0783 µM | KM12 0.286 µM | LOX IMVI 0.038 µM | MCF7 0.0261 µM | NCI-H23 < 0.01 µM | NCI-H460 0.196 µM | NCI-H522 0.0314 µM | OVCAR-3 < 0.0172 µM | OVCAR-8 0.108 µM | PC-3 0.0281 µM | RPMI-8226 0.0409 µM | SF-295 0.497 µM | SF-539 0.577 µM | SNB-19 0.498 µM | SNB-75 0.863 µM | T47D 0.0435 µM | U-251 0.0578 µM | UACC-257 < 0.0185 µM
> 100 µM: HCT-15
inactive: 786-0 11.9 µM | A498 12.8 µM | ACHN 23.3 µM | BT-549 32.9 µM | CAKI-1 > 90.8 µM | DU-145 1.19 µM | HCC 2998 3.37 µM | HOP-92 3.01 µM | Hs-578T 7.67 µM | M14 19.6 µM | MDA-MB-435 12.1 µM | MDA-N 4.57 µM | MOLT-4 80.2 µM | Malme-3M 25.2 µM | NCI-H226 45.3 µM | NCI/ADR-RES > 100 µM | OVCAR-4 50.7 µM | OVCAR-5 > 75.9 µM | RXF 393 19.8 µM | SK-MEL-28 64 µM | SK-MEL-2 7.67 µM | SK-MEL-5 21.5 µM | SK-OV-3 48.9 µM | SN12C 14 µM | SR 19.4 µM | SW-620 3.51 µM | TK-10 26.5 µM | UACC-62 63.7 µM | UO-31 33.3 µM
